Measurements as given in patent KR20210056931A, “피리메타민을 유효성분으로 포함하는 면역 관련 질환의 치료 또는 예방용 약학 조성물” (priority 2019, dated 2021).
Where “and” joins values, the source holds several entries; their conditions need not be identical. Equal values may be shown once.

Legend:
[1] = tested on: rheumatoid arthritis model, DBA-1J Mice [류마티스 관절염 모델]; experiment: Paw edema in rheumatoid arthritis animal model, dose regimen study, Experiment 6; assay type: in vivo, mouse; conditions: Day 14, MTX 2 mg/kg/2day PO, HCQ 80 mg/kg/day QD PO, PG 25 mg/kg/day QD PO, TFC 10 mg/kg/day BID PO (G3-G6)
TNF-α [2] = experiment: TNF-α expression inhibition in Raw264.7, comparison with tofacitinib, Experiment 2-2; assay type: cell-based; conditions: 6 h pretreatment, LPS 10 ng/mL 16 h
[3] = tested on: rheumatoid arthritis model, DBA-1J Mice [류마티스 관절염 모델]; experiment: Histopathological examination in rheumatoid arthritis animal model, dose regimen study, Experiment 6; assay type: in vivo, mouse; conditions: Day 14; MTX 2 mg/kg/2day PO, HCQ 80 mg/kg/day QD PO, PG 25 mg/kg/day QD PO, TFC 10 mg/kg/day BID PO (G3-G6)
TNF-α [4] = experiment: Plasma TNF-α (ELISA), Experiment 6-5; assay type: in vivo, mouse; conditions: for Plasma TNF-α: Day 14, MTX 2 mg/kg/2day PO, HCQ 80 mg/kg/day QD PO, PG 25 mg/kg/day QD PO, TFC 10 mg/kg/day BID PO (G3-G6); for Plasma TNF-α (in words): HCQ, PG, TFC groups
[5] = tested on: rheumatoid arthritis model, DBA-1J Mice [류마티스 관절염 모델]; experiment: Arthritis score in rheumatoid arthritis animal model, dose regimen study, Experiment 6; assay type: in vivo, mouse; conditions: HCQ 80 mg/kg/day QD PO, PG 25 mg/kg/day QD PO; for Arthritis score: MTX 2 mg/kg/2day PO, TFC 10 mg/kg/day BID PO (G3-G6); for Arthritis score (in words): TFC 10 mg/kg/day BID PO
STAT3 = STAT3 activity (nuclear translocation) in Raw264.7, Experiment 3; assay type: cell-based; conditions: 50 ng/ml, 2 h pretreatment; LPS 100 ng/ml 16 h; Fig. 6
TNF-α [6] = experiment: TNF-α expression inhibition in Raw264.7, comparison with DMARDs, Experiment 2-1; assay type: cell-based; conditions: 6 h pretreatment, LPS 10 ng/mL, MTX 344 nM, HCQ 610 nM, PYR 50 ng/mL, CsA 391 ng/mL, AZA 25 ng/mL, SFZ 750 ng/mL
TNF-α [7] = experiment: TNF-α expression inhibition in Raw264.7, comparison with hydroxychloroquine and proguanil, Experiment 2-3; assay type: cell-based; conditions: for TNF-α expression: PY 0.2 uM, HCQ 0.61 uM, PG 5 uM, LPS 10 ng/mL, 24 h co-treatment
[8] = Hematological examination, Experiment 6-4; assay type: in vivo, mouse
[9] = tested on: rheumatoid arthritis model, DBA-1J Mice [류마티스 관절염 모델]; experiment: Arthritis score in rheumatoid arthritis animal model, Experiment 5; assay type: in vivo, mouse; conditions: G3: MTX 2 mg/kg/2day PO
[10] = tested on: rheumatoid arthritis model, DBA-1J Mice [류마티스 관절염 모델]; experiment: Histopathological examination in rheumatoid arthritis animal model, Experiment 5; assay type: in vivo, mouse; conditions: Day 14; G3: MTX 2 mg/kg/2day PO
[11] = tested on: rheumatoid arthritis model, DBA-1J Mice [류마티스 관절염 모델]; experiment: Paw edema in rheumatoid arthritis animal model, Experiment 5; assay type: in vivo, mouse; conditions: G3: MTX 2 mg/kg/2day PO
[12] = Day 14, G3: MTX 2 mpk qd PO, G12: Py 15 mpk qd PO

C[C@@H]1CCN(C(=O)CC#N)C[C@@H]1N(C)c1ncnc2[nH]ccc12 [토파시티닙]
Paw edema, HL, mean [1]: 0.15 mL
Paw edema, HR, mean [1]: 0.16 mL
Paw edema, HL, individual animal ([1]; listed as TFC): 0.13 mL and 0.12 mL and 0.18 mL and 0.14 mL and 0.17 mL
Paw edema, HR, individual animal ([1]; listed as TFC): 0.19 mL and 0.18 mL and 0.13 mL and 0.14 mL and 0.12 mL
TNF-α expression (TNF-α [2]; TFN 100 nM): 535.7 pg/mL
TNF-α expression (TNF-α [2]; TFN 200 nM): 538.5 pg/mL
Bone destruction [3]: 2.5±0.5
Cartilage damage [3]: 1.8±0.4
Histopathological examination, total [3]: 7.3±0.8
Synovium proliferation [3]: 3.0±0.0
Plasma TNF-α (TNF-α [4]): 885.8 pg/mL
Plasma TNF-α (in words) (TNF-α [4]): 혈장 TNF-α가 감소하지 않은
Arthritis score ([5]; Day 0): 2.5±1.0 total score
Arthritis score ([5]; Day 2): 4.5±1.4 total score
Arthritis score ([5]; Day 5): 6.5±2.5 total score
Arthritis score ([5]; Day 7): 8.7±2.3 total score
Arthritis score ([5]; Day 9): 9.0±2.5 total score
Arthritis score ([5]; Day 12): 10.3±2.6 total score
Arthritis score ([5]; Day 14): 11.3±3.3 total score
Arthritis score (in words) [5]: 관절염 지수가 개선되지 않았다

CCN(CCO)CCCC(C)Nc1ccnc2cc(Cl)ccc12 (centres unmarked) [히드록시클로로퀸, Hydroxychloroquine]
Paw edema, HL, mean [1]: 0.17 mL
Paw edema, HR, mean [1]: 0.16 mL
Paw edema, HL, individual animal ([1]; listed as HCQ): 0.17 mL and 0.13 mL and 0.19 mL and 0.15 mL and 0.16 mL
Paw edema, HR, individual animal ([1]; listed as HCQ): 0.19 mL and 0.15 mL and 0.13 mL and 0.16 mL and 0.18 mL and 0.14 mL
STAT3 nuclear translocation (STAT3): LPS 16 시간 자극에 의한 STAT3의 핵이동을 억제함
Bone destruction [3]: 2.7±0.5
Cartilage damage [3]: 2.0±1.1
Histopathological examination, total [3]: 7.7±1.5
Synovium proliferation [3]: 3.0±0.0
Plasma TNF-α (TNF-α [4]): 839.5 pg/mL
Plasma TNF-α (in words) (TNF-α [4]): 혈장 TNF-α가 감소하지 않은
TNF-α expression (TNF-α [6]; 2hr): 339.5 pg/mL
TNF-α expression (TNF-α [6]; 24hr): 3564.6 pg/mL
TNF-α expression (TNF-α [7]): 762.2
Arthritis score ([5]; Day 0): 2.5±1.2 total score
Arthritis score ([5]; Day 2): 4.0±0.6 total score
Arthritis score ([5]; Day 5): 6.5±0.8 total score
Arthritis score ([5]; Day 7): 9.3±2.0 total score
Arthritis score ([5]; Day 9): 10.3±2.1 total score
Arthritis score ([5]; Day 12): 11.3±2.5 total score
Arthritis score ([5]; Day 14): 12.0±2.8 total score
Arthritis score (in words) [5]: 관절염 지수가 개선되지 않았다

CN(Cc1cnc2nc(N)nc(N)c2n1)c1ccc(C(=O)N[C@@H](CCC(=O)O)C(=O)O)cc1 [메토트렉세이트, Methotrexate]
Paw edema, HL, mean [1]: 0.16 mL
Paw edema, HR, mean [1]: 0.16 mL
Paw edema, HL, individual animal ([1]; listed as MTX): 0.19 mL and 0.16 mL and 0.15 mL and 0.17 mL and 0.18 mL and 0.11 mL
Paw edema, HR, individual animal ([1]; listed as MTX): 0.17 mL and 0.14 mL and 0.19 mL and 0.20 mL and 0.13 mL and 0.11 mL
%BASO [8, 12]: 0.6±0.3%
%EOS [8, 12]: 1.8±1.7%
%LUC [8, 12]: 2.8±1.2%
%LYM [8, 12]: 40.8±9.9%
%MONO [8, 12]: 4.2±1.5%
%NEUT [8, 12]: 49.8±11.7%
%RETIC [8, 12]: 0.63±1.16%
HCT [8, 12]: 38.2±6.0%
HDW [8, 12]: 2.15 ± 0.13 g/dL
HGB [8, 12]: 10.9 ± 1.7 g/dL
MCH [8, 12]: 12.8 ± 0.8 pg
MCV [8, 12]: 44.8 ± 2.9 fL
MPV [8, 12]: 7 ± 0.8 fL
PLT [8, 12]: 440±386 10^3 cell/μL
RDW [8, 12]: 23.4±3.7%
WBC [8, 12]: 4.55±0.52 10^3 cell/μL
Hematotoxicity (in words) ([8]; G3 (MTX)): 적혈구와 혈소판 수치가 감소하는 독성이 나타났다
Arthritis score ([9]; Day 0): 2.3±1.6 Total score
Arthritis score ([9]; Day 2): 2.9±1.8 Total score
Arthritis score ([9]; Day 4): 4.6±2.9 Total score
Arthritis score ([9]; Day 7): 5.7±2.5 Total score
Arthritis score ([9]; Day 9): 6.0±2.4 Total score
Arthritis score ([9]; Day 11): 6.6±2.4 Total score
Arthritis score ([9]; Day 14): 6.9±2.5 Total score
Bone destruction [10]: 1.3±1.6
Cartilage damage [10]: 1.0±1.4
Histopathological examination, total [10]: 3.6±4.5
Synovium proliferation [10]: 1.3±1.6
Bone destruction [3]: 1.8±1.0
Cartilage damage [3]: 1.0±0.6
Histopathological examination, total [3]: 5.7±1.2
Synovium proliferation [3]: 2.8±0.4
Plasma TNF-α (TNF-α [4]): 769.1 pg/mL
Paw edema, LEFT ([11]; Day 0): 0.10 ± 0.01 mL
Paw edema, RIGHT ([11]; Day 0): 0.10 ± 0.01 mL
Paw edema, LEFT ([11]; Day 14): 0.13 ± 0.04 mL
Paw edema, RIGHT ([11]; Day 14): 0.16 ± 0.05 mL
TNF-α expression (TNF-α [6]; 2hr): 312.8 pg/mL
TNF-α expression (TNF-α [6]; 24hr): 3464.6 pg/mL
Arthritis score ([5]; Day 0): 2.5±1.0 total score
Arthritis score ([5]; Day 2): 3.7±1.6 total score
Arthritis score ([5]; Day 5): 5.0±2.4 total score
Arthritis score ([5]; Day 7): 6.0±2.9 total score
Arthritis score ([5]; Day 9): 6.3±2.9 total score
Arthritis score ([5]; Day 12): 7.2±2.7 total score
Arthritis score ([5]; Day 14): 7.8±3.4 total score

O=C(O)c1cc(/N=N/c2ccc(S(=O)(=O)Nc3ccccn3)cc2)ccc1O [SFZ, Sulfasalazine]
TNF-α expression (TNF-α [6]; 2hr): 280.7 pg/mL
TNF-α expression (TNF-α [6]; 24hr): 3578.2 pg/mL

[H]/N=C(\N/C(=N/[H])Nc1ccc(Cl)cc1)NC(C)C [프로구아닐]
Paw edema, HL, mean [1]: 0.15 mL
Paw edema, HR, mean [1]: 0.16 mL
Paw edema, HL, individual animal ([1]; listed as PG): 0.13 mL and 0.14 mL and 0.16 mL and 0.15 mL and 0.17 mL and 0.12 mL
Paw edema, HR, individual animal ([1]; listed as PG): 0.16 mL and 0.19 mL and 0.14 mL and 0.13 mL
Bone destruction [3]: 2.7±0.8
Cartilage damage [3]: 2.3±0.8
Histopathological examination, total [3]: 7.8±1.9
Synovium proliferation [3]: 2.8±0.4
Plasma TNF-α (TNF-α [4]): 904.4 pg/mL
Plasma TNF-α (in words) (TNF-α [4]): 혈장 TNF-α가 감소하지 않은
TNF-α expression (TNF-α [7]): 988.1
TNF-α expression inhibition (TNF-α [7]; drug treatment 2 h or 24 h, pyrimethamine 0.2 μM, proguanil 5 μM): TNF-α의 발현량을 억제하지 못했고
Arthritis score ([5]; Day 0): 2.5±1.0 total score
Arthritis score ([5]; Day 2): 4.5±1.0 total score
Arthritis score ([5]; Day 5): 6.7±1.2 total score
Arthritis score ([5]; Day 7): 8.3±1.5 total score
Arthritis score ([5]; Day 9): 9.5±2.2 total score
Arthritis score ([5]; Day 12): 10.2±1.6 total score
Arthritis score ([5]; Day 14): 11.2±1.2 total score
Arthritis score (in words) [5]: 관절염 지수가 개선되지 않았다

Cn1cnc([N+](=O)[O-])c1Sc1ncnc2nc[nH]c12 [AZA, Azathioprine]
TNF-α expression (TNF-α [6]; 2hr): 405.0 pg/mL
TNF-α expression (TNF-α [6]; 24hr): 3539.9 pg/mL
